This is an account of results in patent US11066369B2, “N-(pyridin-2-yl)pyridine-sulfonamide derivatives and their use in the treatment of disease” (Novartis AG, priority 2016, dated 2021).

Molecules are shown by their SMILES. pEC50: −log10 of the molar value. Counter-ions that a name gives are not always drawn. Like-named read-outs stand apart in the source and are kept apart here.

The assay deals with T1, horseradish peroxidase (HRP) tagged delF508-CFTR (Homo sapiens, UniProt P13569, DEL508-508).
T1 construct: expressed in transfected cells
T1 sequence (P13569 with tags, fused parts or gaps DEL508-508): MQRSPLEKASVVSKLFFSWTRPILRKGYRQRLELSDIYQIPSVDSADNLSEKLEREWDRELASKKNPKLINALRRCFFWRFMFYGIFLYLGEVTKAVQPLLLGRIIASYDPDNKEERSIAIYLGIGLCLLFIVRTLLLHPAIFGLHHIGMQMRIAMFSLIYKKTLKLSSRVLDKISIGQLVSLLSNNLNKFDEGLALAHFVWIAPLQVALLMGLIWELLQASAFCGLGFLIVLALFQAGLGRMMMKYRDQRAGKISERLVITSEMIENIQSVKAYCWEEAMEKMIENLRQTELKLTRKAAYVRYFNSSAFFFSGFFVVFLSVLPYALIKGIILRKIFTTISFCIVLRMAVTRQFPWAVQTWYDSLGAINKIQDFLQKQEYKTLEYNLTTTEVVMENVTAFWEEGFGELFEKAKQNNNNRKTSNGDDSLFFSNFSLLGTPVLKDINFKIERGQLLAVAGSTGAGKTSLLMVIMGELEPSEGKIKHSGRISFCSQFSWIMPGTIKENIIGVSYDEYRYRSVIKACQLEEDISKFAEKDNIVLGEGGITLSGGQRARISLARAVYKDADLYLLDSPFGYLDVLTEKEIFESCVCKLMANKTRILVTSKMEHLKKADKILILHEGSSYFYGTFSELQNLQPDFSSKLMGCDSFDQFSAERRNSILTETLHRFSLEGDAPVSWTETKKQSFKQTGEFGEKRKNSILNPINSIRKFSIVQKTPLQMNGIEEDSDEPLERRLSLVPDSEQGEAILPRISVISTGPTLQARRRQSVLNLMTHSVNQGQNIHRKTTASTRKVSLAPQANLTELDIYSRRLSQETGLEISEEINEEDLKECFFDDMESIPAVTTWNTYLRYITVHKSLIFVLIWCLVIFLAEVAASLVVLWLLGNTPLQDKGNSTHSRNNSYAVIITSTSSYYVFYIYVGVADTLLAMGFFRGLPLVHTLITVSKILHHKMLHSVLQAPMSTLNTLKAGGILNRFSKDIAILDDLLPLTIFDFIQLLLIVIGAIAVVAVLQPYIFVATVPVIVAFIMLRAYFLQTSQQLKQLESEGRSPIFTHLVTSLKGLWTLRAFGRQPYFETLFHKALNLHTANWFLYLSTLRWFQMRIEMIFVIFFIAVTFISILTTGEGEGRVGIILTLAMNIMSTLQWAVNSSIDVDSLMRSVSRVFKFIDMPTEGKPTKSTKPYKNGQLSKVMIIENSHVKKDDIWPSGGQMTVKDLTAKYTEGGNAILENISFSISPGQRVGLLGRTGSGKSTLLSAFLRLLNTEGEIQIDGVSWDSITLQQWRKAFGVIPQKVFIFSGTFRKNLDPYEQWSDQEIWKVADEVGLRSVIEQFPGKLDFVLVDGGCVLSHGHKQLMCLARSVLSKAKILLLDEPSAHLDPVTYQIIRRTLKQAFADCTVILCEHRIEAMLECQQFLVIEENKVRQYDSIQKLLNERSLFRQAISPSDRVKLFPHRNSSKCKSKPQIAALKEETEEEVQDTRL
The assay can be described thus: Measurement of delF508-CFTR-HRP surface expression in CFBE41o- cells.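 As to DelF508-CFTR-HRP Amax %: percent efficacy relative to reference corrector lumacaftor.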 The following applies: CFBE41o- cells; for pEC50: read-out: DelF508-CFTR-HRP EC50; for Emax: read-out: DelF508-CFTR-HRP Amax %. The format is cell-based. From the text: Measurement of delF508-CFTR-HRP Surface Expression in CFBE41o-Cells
This assay quantifies the cell surface expressions of the mutant CFTR channel using an extracellular HRP tag.
A cellular assay was developed to measure surface expression of horseradish peroxidase (HRP) tagged delF508-CFTR in the human bronchial epithelial immortalized CFBE41o-cell line (Phuan, P. W., et al, (2014) Molecular Pharmacology 86:42-51). Specifically, the HRP sequence was inserted into the fourth extracellular loop of delF508-CFTR and stably expressed in CFBE41o-cells. Cells were seeded in 384 well plate at a density of 5000 cells/well and incubated at 37° C. for 12 to 24 hours in medium (Gibco MEM #11095, 10% FBS, 10 mM HEPES, […], 200 μg/mL G418, 3 μg/mL Puromycin). The delF508-CFTR-HRP expression was induced with 500 ng/mL doxycycline (Sigma D-9891, dissolved in H2O and sterile filtered) in medium and the cells were incubated at 37° C. for 48h. Old medium was removed and fresh medium was added containing 500 ng/mL doxycycline and unknown test compound at required test concentration in DMSO, not exceeding 0.5% final DMSO concentration. The highest concentration tested was 10 μM with a 10-point concentration response curve using a 3-fold dilution. After addition of compounds, the cells were incubated for 24h at 37° C. On the final day, cells were washed four times in PBS containing 1 mM MgCl2 and 0.1 mM CaCl2. HRP-Substrate (SuperSignal ELISA Pico, Fisher #37069) 20 μl/well was added and the luminescence signal was determined (Viewlux, Perkin Elmer). Light was emitted upon addition of exogenous HRP-Substrate only when delF508-CFTR-HRP reached the cell surface and the HRP tag was accessible to the HRP-Substrate (note: HRP-Substrate cannot cross the lipid bilayer to reach delF508-CFTR-HRP misfolded within the cell).
The median activity for the lowest concentration of the compounds on each assay plate was calculated and this value was used to normalize the signal for each well on the respective plate. Three replicates at each concentrations for every compound were run to determine one EC50. The median value was determined and used to calculate compound activities as described below. Effective half maximal values (EC50) were calculated for each compound by performing logistic regression on measured dose-response data points using the equation:
[formula] where “Y” is the observed activity, “Bottom” is the lowest observed value, “Top” is the highest observed value, and the “Hill coefficient” gives the largest absolute value of the slope. The curve fitting is carried out by a curve fitting program implemented at GNF using Matlab (Mathworks).
The dose response curves also were used to calculate Fold Change (FC) using the equation: […]
Compound efficacy relative to the reference compound 3-(6-(1-(2,2-difluorobenzo[d][1,3]dioxol-5-yl)cyclopropane-1-carboxamido)-3-methylpyridin-2-yl)benzoic acid was determined using the following formula: […]

Setting [1] is: mean of at least two replicates.
Setting [2] is: delF508-CFTR-HRP surface expression.

As for `COc1ccc(Cl)cc1-c1nc(NS(=O)(=O)c2cccc(N3CCC(C)(C(=O)O)CC3)n2)ccc1C(F)(F)F` [Example 426, 1-(6-(N-(6-(5-chloro-2-methoxyphenyl)-5-(trifluoromethyl)pyridin-2-yl)sulfamoyl)pyridin-2-yl)-4-methylpiperidine-4-carboxylic Acid], under setting [1], the negative logarithm of the EC50 (pEC50) (in general, the EC50 on a negative log10 scale, so that one unit is a factor of ten) was 5.64. Further, the Emax (surface expression Amax) was 287%.
The like results for `O=C(O)C1CC12CCN(c1cccc(S(=O)(=O)Nc3ccc(C(F)(F)F)c(-c4ccccc4C4CC4)n3)n1)C2` (stereo not shown) [Example 420, 5-(6-(N-(6-(2-cyclopropylphenyl)-5-(trifluoromethyl)pyridin-2-yl)sulfamoyl)pyridin-2-yl)-5-azaspiro[2.4]heptane-1-carboxylic Acid] were, in that order, 5.72 and 705%.
As to `Nc1cccc(S(=O)(=O)Nc2ccc(Cl)c(-c3c(Cl)cccc3C(F)(F)F)n2)n1` [Example 52, 6-amino-N-(5-chloro-6-(2-chloro-6-(trifluoromethyl)phenyl)pyridin-2-yl)pyridine-2-sulfonamide], under setting [2], the Emax amounted to 327% and the pEC50 was 5.86.
The like results for `Cc1ccccc1-c1nc(NS(=O)(=O)c2cccc(N)n2)ccc1Cl` [Example 14, 6-Amino-N-(5-chloro-6-(o-tolyl)pyridin-2-yl)pyridine-2-sulfonamide] were, in that order, 523% and 5.87.
In the case of `C[C@@]1(C(=O)O)CCCN(c2cccc(S(=O)(=O)Nc3ccc(Cl)c(-c4ccccc4C4CCC4)n3)n2)C1` [Example 391, (R)-1-(6-(N-(5-chloro-6-(2-cyclobutylphenyl)pyridin-2-yl)sulfamoyl)pyridin-2-yl)-3-methylpiperidine-3-carboxylic Acid], the pEC50 under setting [1] is 6.28. Besides, the Emax (surface expression Amax) was 503%.
For the compound `COc1ccc(Cl)c(-c2nc(NS(=O)(=O)c3cccc(N4CCC[C@@H](C(=O)O)C4)n3)ccc2C(F)(F)F)c1` [Example 449, (R)-1-(6-(N-(6-(2-chloro-5-methoxyphenyl)-5-(trifluoromethyl)pyridin-2-yl)sulfamoyl)pyridin-2-yl)piperidine-3-carboxylic Acid], under setting [1], the negative-log EC50 (pEC50) is 5.63.
For `Cc1ccccc1-c1nc(NS(=O)(=O)c2cccc(N3CCN4C[C@@H](F)C[C@H]4C3)n2)ccc1C(F)(F)F` [Example 137, 6-((7S,8aS)-7-fluorohexahydropyrrolo[1,2-a]pyrazin-2(1H)-yl)-N-(6-(o-tolyl)-5-(trifluoromethyl)pyridin-2-yl)pyridine-2-sulfonamide], under setting [2], the Emax was 854% and the negative-log EC50 (pEC50) was 5.87.
The like results for `Cc1cccc(C)c1-c1ccc(F)c(NS(=O)(=O)c2cccc(N)n2)n1` [Example 93, 6-amino-N-(6-(2,6-dimethylphenyl)-3-fluoropyridin-2-yl)pyridine-2-sulfonamide] were, in that order, 23.5% and 5.45.
On to `C[C@]1(C(=O)O)CCCN(c2cccc(S(=O)(=O)Nc3ccc(C(F)(F)F)c(-c4ccccc4C4CC4)n3)n2)C1` [Example 429, (S)-1-(6-(N-(6-(2-cyclopropylphenyl)-5-(trifluoromethyl)pyridin-2-yl)sulfamoyl)pyridin-2-yl)-3-methylpiperidine-3-carboxylic Acid], for which the negative logarithm of the EC50 (pEC50) under setting [1] is 6.08. Moreover, the Emax (surface expression Amax) was determined as 541%.
As for `Cc1ccc(C#N)cc1-c1nc(NS(=O)(=O)c2cccc(N)n2)ccc1Cl` [Example 84, 6-amino-N-(5-chloro-6-(5-cyano-2-methylphenyl)pyridin-2-yl)pyridine-2-sulfonamide], under setting [2], the Emax came to 111% and the pEC50 is 5.81.
Take `CC1(C(=O)O)CCN(c2cccc(S(=O)(=O)Nc3ccc(Cl)c(-c4ccccc4Cl)n3)n2)CC1` [Example 239, 1-(6-(N-(5-chloro-6-(2-chlorophenyl)pyridin-2-yl)sulfamoyl)pyridin-2-yl)-4-methylpiperidine-4-carboxylic Acid]: under setting [2], the Emax is 280% and the pEC50 was 5.35.
For the compound `CCOC(=O)C1(C)CCN(c2cccc(S(=O)(=O)Nc3ccc(Cl)c(-c4cccc(F)c4C)n3)n2)CC1` [Example 252, ethyl 1-(6-(N-(5-chloro-6-(3-fluoro-2-methylphenyl)pyridin-2-yl)sulfamoyl)pyridin-2-yl)-4-methylpiperidine-4-carboxylate], under setting [2], the Emax was found to be 602% and the pEC50 was 5.61.
As for `Cc1ccccc1-c1nc(NS(=O)(=O)c2cccc(N[C@@H]3CCC[C@@H](C(=O)O)C3)n2)ccc1C(F)(F)F` (relative stereo) [Example 463, (1,3-trans)-3-((6-(N-(6-(o-tolyl)-5-(trifluoromethyl)pyridin-2-yl)sulfamoyl)pyridin-2-yl)amino)cyclohexanecarboxylic Acid], the pEC50 under setting [1] is 5.53. For the same compound, the Emax (surface expression Amax) came out at 410%.
Take `Cc1ccccc1-c1nc(NS(=O)(=O)c2cccc(N[C@@H]3CCNC[C@@H]3O)n2)ccc1C(F)(F)F` (relative stereo) [Example 113, 6-(((3S,4R)-3-hydroxypiperidin-4-yl)amino)-N-(6-(o-tolyl)-5-(trifluoromethyl)pyridin-2-yl)pyridine-2-sulfonamide Hydrochloride]: under setting [2], the Emax came to 72% and the negative logarithm of the EC50 (pEC50) was 5.37.
As for `COc1ccc(Cl)cc1-c1nc(NS(=O)(=O)c2cccc(N3CCC[C@@](C)(C(=O)O)C3)n2)ccc1C(F)(F)F` [Example 455, (R)-1-(6-(N-(6-(5-chloro-2-methoxyphenyl)-5-(trifluoromethyl)pyridin-2-yl)sulfamoyl)pyridin-2-yl)-3-methylpiperidine-3-carboxylic Acid], under setting [1], the pEC50 is 5.75. Further, where the note is “surface expression Amax”, the Emax came to 899%.
Take `Cc1cccc(C)c1-c1nc(NS(=O)(=O)c2ccc(Br)c(N)n2)ccc1Cl` [Example 81, 6-amino-5-bromo-N-(5-chloro-6-(2,6-dimethylphenyl)pyridin-2-yl)pyridine-2-sulfonamide]: under setting [2], the Emax is 127% and the negative-log EC50 (pEC50) was 5.70.
Take `Cc1c(F)cccc1-c1nc(NS(=O)(=O)c2cccc(N3CCNCC3)n2)ccc1Cl` [Example 194, N-[5-chloro-6-(3-fluoro-2-methylphenyl)pyridin-2-yl]-6-(piperazin-1-yl)pyridine-2-sulfonamide hydrochloride]: under setting [2], the Emax was determined as 177% and the pEC50 was 5.42.
For the compound `C[C@@]1(C(=O)O)CCCN(c2cccc(S(=O)(=O)Nc3ccc(Cl)c(-c4ccccc4C4CC4)n3)n2)C1` [Example 437, (R)-1-(6-(N-(5-chloro-6-(2-cyclopropylphenyl)pyridin-2-yl)sulfamoyl)pyridin-2-yl)-3-methylpiperidine-3-carboxylic Acid], the pEC50 under setting [1] was 5.81. Moreover, the Emax (surface expression Amax) amounted to 869%.
Take `Cc1cccc(C)c1-c1cc(C(F)(F)F)cc(NS(=O)(=O)c2cccc(N3CCN(C(=O)OC(C)(C)C)CC3)n2)n1` [Example 132, tert-butyl 4-(6-(N-(6-(2,6-dimethylphenyl)-4-(trifluoromethyl)pyridin-2-yl)sulfamoyl)pyridin-2-yl)piperazine-1-carboxylate]: under setting [2], the Emax worked out at 894% and the negative-log EC50 (pEC50) is 6.10.
Taken in the same sequence, the figures for `Cc1ccccc1-c1nc(NS(=O)(=O)c2cccnc2N)ccc1Cl` [Example 88, 2-amino-N-(5-chloro-6-(o-tolyl)pyridin-2-yl)pyridine-3-sulfonamide] were 92.9% and 5.42.
With `Cc1ccccc1-c1nc(NS(=O)(=O)c2cccc(N3CCC[C@@H]4[C@@H](C(=O)O)C[C@@H]43)n2)ccc1C(F)(F)F` (racemic) [Example 443, rac-(1SR,6RS,7SR)-2-(6-(N-(6-(o-tolyl)-5-(trifluoromethyl)pyridin-2-yl)sulfamoyl)pyridin-2-yl)-2-azabicyclo[4.2.0]octane-7-carboxylic Acid], the negative logarithm of the EC50 (pEC50) under setting [1] was 5.76.
